Entries after “also recorded” stand apart in the source; their conditions may differ.
Assays:
[1] = target: T1, Rb:Raf-1 binding (Homo sapiens, UniProt P04049+P06400); experiment: GST-Rb/GST-Raf-1 ELISA; conditions: for IC50: IC50 (nM), inhibition of the Rb:Raf-1 binding, concentration that inhibits the Rb:Raf-1 binding by 50%, triplicate; for inhibition at 20 µM: read-out: % Inhibition at 20 μM, inhibition of Rb:Raf-1 binding, compound at 20 μM
T1 construct: a glutathione S-transferase (GST) Raf-1 (1-149aa) overnight at 4° C; made in house
Procedure: In vitro library screening assays. Enzyme Linked ImmunoSorbent Assay (ELISA) 96-well plates were coated with 1 μg/mL of a glutathione S-transferase (GST) Raf-1 (1-149aa) overnight at 4° C. Subsequently the plates were blocked and GST Rb at 20 μg/mL was rotated at room temperature (RT) for 30 minutes in the presence or absence of the compounds at 20 micromolar (μM). GST-Rb +/− compounds were then added to the plate and incubated for 90 minutes (min) at 37° C. The amount of Rb bound to Raf-1 was detected by Rb polyclonal antibody (Santa Cruz Biotechnology, Santa Cruz, Calif.) 1:1000 incubated for 60 min at 37° C. Donkey-anti-rabbit-IgG-HRP (1:10,000) was added to the plate and incubated at 37° C. for 60 minutes. The color was developed with orthophenylenediamine (Sigma, St. Louis, Mo.) and the reaction was terminated with 3 molar (M) H2SO4. Absorbance was read at 490 nanometers (nm). To determine disruption of Rb to E2F1, Phb, or HDAC1 the above protocol was used with the exception of coating GST Rb on the ELISA plate and adding the drugs in the presence or absence of GST E2F1, Phb, or HDAC1. […] Prohibitin monoclonal antibody was used at 1:1000 to detect the amount of Rb bound to Prohibitin. For disruption of MEK-Raf-1 binding ELISAs, Raf-1 1 microgram/milliliter (μg/mL) was coated on the plate and GST-MEK (20 μg/mL) was incubated +/− the compounds for 30 minutes at room temperature. Mek1 polyclonal antibody was used at 1:1000 to detect the binding of Raf-1 to Mek1. The IC50 concentrations for the Rb:Raf-1 inhibitors were determined by plotting with Origin 7.5 software (Origin, Northampton, Mass.).
A screen was developed to identify small molecule inhibitors of the Rb:Raf-1 interaction. A diversity set, comprising 1981 compounds (National Cancer Institute, Bethesda, Md.) was examined using a glutathione S-transferase-retinoblastoma/glutathione S-transferase-Raf-1 kinase Enzyme-Linked ImmunoSorbent Assay screen (GST-Rb/GST-Raf-1 ELISA).

[2] = system: Human aortic endothelial cells (HAECs); experiment: Matrigel angiogenic tubule formation; assay type: cell-based; conditions: 20 μM
Procedure: Matrigel assays. […] A total of 100 μl of thawed Matrigel was added to 96-well tissue culture plates, followed by incubation at 37° C. for 60 minutes to allow polymerization. […] Capillary tube formation assessed by using a Leica DMIL phase contrast microscope.
An experiment was performed to determine whether angiogenic tubule formation could be inhibited by the disclosed compounds.

[3] = target: binding of Raf-1 to GST Rb beads (Homo sapiens, UniProt P04049+P06400); experiment: GST pull-down, U937 lysates; conditions: 20 μM, asynchronous U937 lysates, western blotting
Procedure: First, 200 micrograms (μg) of U937 asynchronous lysates were pre-incubated with 10 μM of the indicated drugs or 1 μM of the Raf-1 peptide for 30 minutes at 4° C. Next, 200 μg of the U937 lysates were incubated with glutathione beads carrying an equal amount of the GST fusion proteins in 2001 of protein binding buffer (20 mM Tris [pH 7.5], 50 mM KCL, 0.5 mM EDTA, 1 mM dithiothreitol, 0.5% NP-40, 3 mg of bovine serum albumin/mL) at 4° C. for 2 h.
Asynchronous U937 lysates were incubated with GST-Rb beads in the presence or absence of the selected compounds or an 8 amino acid Raf-1 peptide and the binding of Raf-1 assessed by western blotting.

[4] = target: binding of Raf-1 to Rb in U937 cells (Homo sapiens, UniProt P04049+P06400); experiment: Immunoprecipitation-Western blot, serum stimulated U937 cells; conditions: U937 cells serum stimulated 2 hours, 20 μM
Procedure: Lysate preparation, pmmunoprecipitation, and pestern plotting. Lysates from cells treated with different agents were prepared by NP-40 lysis as described earlier (Wang 1998). […] Physical interaction between proteins in vivo was analyzed by immunoprecipitation—Western blot analyses with 200 μg of lysate with 1 μg of the indicated antibody as previously described (Wang 1998). Polyclonal E2F1 and Cyclin D were obtained from Santa Cruz Biotechnology. Monoclonal Rb and Raf-1 were supplied by BD Transduction laboratories (San Jose, Calif.). Polyclonal antibodies to phospho-Rb (807,811) phospho-MEK1/2, MEK1/2, phospho-Erk1/2 and ERK1/2 were supplied by Cell Signaling (Danvers, Mass.).
U937 cells were serum starved for 48 hours and subsequently serum stimulated for 2 hours in the presence or absence of 20 μM of the compounds.

[5] = target: T2, Rb-E2F1 (Homo sapiens, UniProt P06400+Q01094); experiment: GST ELISA, Rb-E2F1 binding; conditions: 20 μM
T2 construct: made in house
Excerpt: In vitro library screening assays. […] Absorbance was read at 490 nanometers (nm).

T1 sequence (P04049 1-149 limits assumed): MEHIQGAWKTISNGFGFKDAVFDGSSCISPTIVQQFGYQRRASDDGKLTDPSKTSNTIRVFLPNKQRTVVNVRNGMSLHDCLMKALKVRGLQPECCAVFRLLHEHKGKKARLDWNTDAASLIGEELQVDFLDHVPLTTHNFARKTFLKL
T1 sequence (P06400 whole entry): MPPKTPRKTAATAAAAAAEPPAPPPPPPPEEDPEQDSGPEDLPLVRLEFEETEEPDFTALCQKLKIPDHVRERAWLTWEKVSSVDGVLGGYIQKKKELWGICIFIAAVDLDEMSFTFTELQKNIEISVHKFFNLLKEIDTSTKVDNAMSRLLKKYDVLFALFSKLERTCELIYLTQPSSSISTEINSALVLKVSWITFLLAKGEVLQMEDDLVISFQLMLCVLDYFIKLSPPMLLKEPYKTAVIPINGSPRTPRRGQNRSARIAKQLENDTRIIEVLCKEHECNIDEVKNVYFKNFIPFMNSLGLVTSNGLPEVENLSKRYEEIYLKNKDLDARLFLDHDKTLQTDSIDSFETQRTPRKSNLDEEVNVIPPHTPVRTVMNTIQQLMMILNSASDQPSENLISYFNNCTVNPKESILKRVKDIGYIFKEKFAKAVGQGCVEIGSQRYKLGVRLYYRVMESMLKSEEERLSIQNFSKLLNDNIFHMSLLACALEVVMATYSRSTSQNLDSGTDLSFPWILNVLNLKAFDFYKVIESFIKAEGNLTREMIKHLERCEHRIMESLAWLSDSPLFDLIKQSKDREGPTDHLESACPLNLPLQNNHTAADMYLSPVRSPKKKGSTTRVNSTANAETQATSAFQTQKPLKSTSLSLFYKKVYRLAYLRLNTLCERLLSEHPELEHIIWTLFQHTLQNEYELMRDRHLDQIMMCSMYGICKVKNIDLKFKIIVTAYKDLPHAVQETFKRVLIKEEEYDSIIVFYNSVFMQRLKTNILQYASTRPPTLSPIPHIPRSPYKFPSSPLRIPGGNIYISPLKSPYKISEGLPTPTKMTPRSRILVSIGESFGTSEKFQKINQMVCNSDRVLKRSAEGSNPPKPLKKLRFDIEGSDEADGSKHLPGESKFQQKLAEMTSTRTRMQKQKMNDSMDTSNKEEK
Sequence of binding of Raf-1 to GST Rb beads (P06400 whole entry): as above
Sequence of binding of Raf-1 to GST Rb beads (P04049 whole entry): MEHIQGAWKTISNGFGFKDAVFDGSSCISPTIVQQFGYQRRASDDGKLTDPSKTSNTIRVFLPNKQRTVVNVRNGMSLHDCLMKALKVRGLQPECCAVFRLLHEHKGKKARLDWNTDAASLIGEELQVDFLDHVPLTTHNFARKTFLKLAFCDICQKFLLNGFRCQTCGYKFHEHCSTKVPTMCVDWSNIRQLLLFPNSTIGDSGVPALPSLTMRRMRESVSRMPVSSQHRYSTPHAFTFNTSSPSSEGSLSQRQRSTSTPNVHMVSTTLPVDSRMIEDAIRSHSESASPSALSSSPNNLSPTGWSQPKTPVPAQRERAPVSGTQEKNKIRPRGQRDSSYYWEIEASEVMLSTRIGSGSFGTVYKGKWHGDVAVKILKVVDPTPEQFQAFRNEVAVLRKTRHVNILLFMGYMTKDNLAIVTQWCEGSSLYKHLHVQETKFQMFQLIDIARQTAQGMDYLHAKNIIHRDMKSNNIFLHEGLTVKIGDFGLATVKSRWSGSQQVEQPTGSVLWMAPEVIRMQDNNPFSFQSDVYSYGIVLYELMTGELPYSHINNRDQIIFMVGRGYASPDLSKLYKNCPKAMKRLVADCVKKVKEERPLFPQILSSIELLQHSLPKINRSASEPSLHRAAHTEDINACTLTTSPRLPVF
Sequence of binding of Raf-1 to Rb in U937 cells (P06400 whole entry): as the sequence (P06400 whole entry) above
Sequence of binding of Raf-1 to Rb in U937 cells (P04049 whole entry): as the sequence (P04049 whole entry) above
T2 sequence (P06400 whole entry): as the sequence (P06400 whole entry) above
T2 sequence (Q01094 whole entry): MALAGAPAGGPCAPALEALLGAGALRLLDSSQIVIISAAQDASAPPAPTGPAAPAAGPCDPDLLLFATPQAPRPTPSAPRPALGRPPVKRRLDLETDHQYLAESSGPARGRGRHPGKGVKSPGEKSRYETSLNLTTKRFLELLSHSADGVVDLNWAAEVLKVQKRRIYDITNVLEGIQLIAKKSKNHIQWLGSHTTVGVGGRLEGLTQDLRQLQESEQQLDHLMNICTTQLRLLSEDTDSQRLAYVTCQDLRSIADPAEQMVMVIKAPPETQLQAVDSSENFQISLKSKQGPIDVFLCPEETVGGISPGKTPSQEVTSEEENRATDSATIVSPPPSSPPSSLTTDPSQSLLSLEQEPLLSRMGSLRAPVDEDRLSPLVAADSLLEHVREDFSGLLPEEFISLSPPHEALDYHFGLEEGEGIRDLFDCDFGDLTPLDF

| Structure (SMILES) | IC50 [1] [nM] | inhibition at 20 µM [1] [%] | angiogenic tubule formation in matrigel [2] | binding of Raf-1 to GST Rb beads [3] | binding of Raf-1 to Rb in intact cells [4] | inhibition of Rb-E2F1 binding / selectivity in words [5] |
| --- | --- | --- | --- | --- | --- | --- |
| N=C(N)SCc1ccc(Cl)c2ccccc12 [(2), (4-chloronaphthalen-1-yl)methyl carbamimidothioate] | 283 ± 46 | 95 | inhibit angiogenic tubule formation; also recorded: significantly inhibited the angiogenic tubule formation | inhibited the binding of GST Rb beads to endogenous Raf-1 | inhibited the binding of Raf-1 to Rb significantly | selective for inhibiting Rb:Raf-1 and not Rb-E2F1 binding |
| N=C(N)SCc1ccc(Cl)cc1Cl [(1), 2,4-dichlorobenzyl carbamimidothioate] | 81 ± 4 | 100 | inhibit angiogenic tubule formation; also recorded: significantly inhibited the angiogenic tubule formation | inhibited the binding of GST Rb beads to endogenous Raf-1 | inhibited the binding of Raf-1 to Rb significantly |  |

From US9656953B2, “Inhibition of cell proliferation” (University of South Florida, priority 2005, dated 2017)
